Test results: patent publication US12497397B2, “Pyrrole compounds useful as antifungals” (WIGEN BIOMEDICINE TECHNOLOGY (SHANGHAI) CO., LTD., priority 2019, dated 2025)
≈ marks a conversion by molar mass, not a printed value.

Experiments:
Assay in all cases: In vitro minimum inhibitory concentration (MIC) test
Assay type in all cases: cell-based
Details in all cases: RPMI 1640, 35° C., 24-48 h, 485 nm, lowest concentration inhibiting growth more than 80%
Aspergillus flavus = system: Aspergillus flavus
Protocol: (§1) Example 20: In Vtro Minimum Inhibitory Concentration (MIC) Test Strains used in the experiment are inoculated on Sabouraud glucose agar culture medium and cultured at 35° C. for 5 d; then 1 mL of 0.2% Tween diluted with 0.85% sterile normal saline is added into Sabouraud dextrose agar culture medium, and plate is shaken, before solution collected from plate surface is transferred into sterile tube, and fungus containing supernatant is transferred into sterile tube in full suspension so as to prepare strain diluent with concentration from 0.4*10^6 to 5*10^6 CFU/mL. Strain diluent prepared herein is diluted into RPMI 1640 culture medium in a ratio of 1:100. Such biological suspension is added into hole on the plate which contains drug diluent; all plates are incubated at 35° C. for 24-48 h, and light in wavelength of 485 nm is monitored for each hole to evaluate strain growth. MIC of compound is defined as follows: Compared with negative control free of drug, the lowest drug concentration able to inhibit growth for more than 80% of strains. A indicates MIC value>0.1 μg/mL, B indicates 0.1 μg/mL≥MIC value>0.01 μg/mL, and C indicates MIC value<0.01 μg/mL.

Aspergillus fumigatus = system: Aspergillus fumigatus
Protocol: as §1

Aspergillus niger = system: Aspergillus niger
Protocol: as §1

Aspergillus terreus = system: Aspergillus terreus
Protocol: as §1

SMILES	MIC (Aspergillus flavus)	MIC (Aspergillus fumigatus)	MIC (Aspergillus niger)	MIC (Aspergillus terreus)
Cc1cc(-c2ccccc2)c(C(=O)C(=O)Nc2ccc3c(c2)OC[C@@H]2CN(c4ncc(F)cn4)CCN32)n1C [Example 1-A]	< 0.01 µg/mL	< 0.01 µg/mL	< 0.01 µg/mL	< 0.01 µg/mL
Cc1cc(-c2ccccc2)c(C(=O)C(=O)Nc2ccc3c(c2)OC[C@H]2CN(c4ncc(F)cn4)CCN32)n1C [Example 1-B]	< 0.01 µg/mL	< 0.01 µg/mL	< 0.01 µg/mL	< 0.01 µg/mL
Cc1cc(-c2ccccc2)c(C(=O)C(=O)Nc2ccc3c(c2)OCC2CN(c4ncc(F)cn4)CCN32)n1C (stereo not drawn) [Example 1]	< 0.01 µg/mL	< 0.01 µg/mL	< 0.01 µg/mL	< 0.01 µg/mL
Cc1cc(C)nc(N2CCN3c4ccc(NC(=O)C(=O)c5c(-c6ccccc6)cc(C)n5C)cc4OC[C@@H]3C2)c1 [Example 2-A]	< 0.01 µg/mL	< 0.01 µg/mL	< 0.01 µg/mL	< 0.01 µg/mL
Cc1cc(C)nc(N2CCN3c4ccc(NC(=O)C(=O)c5c(-c6ccccc6)cc(C)n5C)cc4OC[C@H]3C2)c1 [Example 2-B]	< 0.01 µg/mL	< 0.01 µg/mL	< 0.01 µg/mL	< 0.01 µg/mL
Cc1cc(C)nc(N2CCN3c4ccc(NC(=O)C(=O)c5c(-c6ccccc6)cc(C)n5C)cc4OCC3C2)c1 (stereo not drawn) [Example 2]	< 0.01 µg/mL	< 0.01 µg/mL	< 0.01 µg/mL	< 0.01 µg/mL
Cc1cc(-c2ccccc2)c(C(=O)C(=O)Nc2ccc3c(c2)OCC2CN(CC(C)(C)C)CCN32)n1C (stereo not drawn) [Example 8]	0.01 to 0.1 µg/mL (≈ 0.02 to 0.2 µM)	< 0.01 µg/mL	0.01 to 0.1 µg/mL (≈ 0.02 to 0.2 µM)	< 0.01 µg/mL
Cc1cc(-c2ccccc2)c(C(=O)C(=O)Nc2cc3c(cc2F)N2CCN(c4ncc(F)cn4)CC2CO3)n1C (stereo not drawn) [Example 9]	< 0.01 µg/mL	< 0.01 µg/mL	< 0.01 µg/mL	< 0.01 µg/mL
Cc1cc2c(cc1NC(=O)C(=O)c1c(-c3ccccc3)cc(C)n1C)OCC1CN(c3ncc(F)cn3)CCN21 (stereo not drawn) [Example 10]	0.01 to 0.1 µg/mL (≈ 0.0185 to 0.185 µM)	0.01 to 0.1 µg/mL (≈ 0.0185 to 0.185 µM)	0.01 to 0.1 µg/mL (≈ 0.0185 to 0.185 µM)	0.01 to 0.1 µg/mL (≈ 0.0185 to 0.185 µM)
Cc1cc(-c2ccccc2)c(C(=O)C(=O)Nc2ccc3c(c2)N(C)C[C@@H]2CN(c4ncc(F)cn4)CCN32)n1C [Example 12-A]	< 0.01 µg/mL	< 0.01 µg/mL	< 0.01 µg/mL	< 0.01 µg/mL
Cc1cc(-c2ccccc2)c(C(=O)C(=O)Nc2ccc3c(c2)N(C)C[C@H]2CN(c4ncc(F)cn4)CCN32)n1C [Example 12-B]	< 0.01 µg/mL	< 0.01 µg/mL	< 0.01 µg/mL	< 0.01 µg/mL
Cc1cc(-c2ccccc2)c(C(=O)C(=O)Nc2ccc3c(c2)N(C)CC2CN(c4ncc(F)cn4)CCN32)n1C (stereo not drawn) [Example 12]	0.01 to 0.1 µg/mL (≈ 0.0185 to 0.185 µM)	< 0.01 µg/mL	0.01 to 0.1 µg/mL (≈ 0.0185 to 0.185 µM)	< 0.01 µg/mL
Cc1cc(C)nc(N2CCN3c4ccc(NC(=O)C(=O)c5c(-c6ccccc6)cc(C)n5C)cc4N(C)C[C@@H]3C2)c1 [Example 13-A]	0.01 to 0.1 µg/mL (≈ 0.0182 to 0.182 µM)	< 0.01 µg/mL	0.01 to 0.1 µg/mL (≈ 0.0182 to 0.182 µM)	< 0.01 µg/mL
Cc1cc(C)nc(N2CCN3c4ccc(NC(=O)C(=O)c5c(-c6ccccc6)cc(C)n5C)cc4N(C)C[C@H]3C2)c1 [Example 13-B]	0.01 to 0.1 µg/mL (≈ 0.0182 to 0.182 µM)	< 0.01 µg/mL	0.01 to 0.1 µg/mL (≈ 0.0182 to 0.182 µM)	< 0.01 µg/mL
Cc1cc(C)nc(N2CCN3c4ccc(NC(=O)C(=O)c5c(-c6ccccc6)cc(C)n5C)cc4N(C)CC3C2)c1 (stereo not drawn) [Example 13]	0.01 to 0.1 µg/mL (≈ 0.0182 to 0.182 µM)	< 0.01 µg/mL	0.01 to 0.1 µg/mL (≈ 0.0182 to 0.182 µM)	< 0.01 µg/mL
CCn1c(C)cc(-c2ccccc2)c1C(=O)C(=O)Nc1ccc2c(c1)OCC1CN(c3ncc(F)cn3)CCN21 (stereo not drawn) [Example 14]	< 0.01 µg/mL	< 0.01 µg/mL	0.01 to 0.1 µg/mL (≈ 0.0185 to 0.185 µM)	< 0.01 µg/mL
COCCn1c(C)cc(-c2ccccc2)c1C(=O)C(=O)Nc1ccc2c(c1)OCC1CN(c3ncc(F)cn3)CCN21 (stereo not drawn) [Example 16]	< 0.01 µg/mL	0.01 to 0.1 µg/mL (≈ 0.0175 to 0.175 µM)	< 0.01 µg/mL	< 0.01 µg/mL
CCC(C)n1ncn(-c2ccc(N3CCN(c4ccc(OCC5COC(Cn6cncn6)(c6ccc(Cl)cc6Cl)O5)cc4)CC3)cc2)c1=O (stereo not drawn) [Itraconazole, reference compound]	> 0.1 µg/mL	> 0.1 µg/mL	> 0.1 µg/mL	> 0.1 µg/mL
